Measurements: patent US20240108618A1, “KRAS G12C INHIBITOR DOSING REGIMENS” (Eli Lilly and Company, priority 2022, published 2024)
Marks after values point to notes of the source that are not given here.

Key:
[1] = Text: A “DLT” is defined as any of the treatment-emergent adverse event (TEAEs), as defined by the National Cancer Institute's Common Terminology Criteria for Adverse Events, version 5.0 (NCI CTCAE v5.0), deemed clinically significant and occurring during the first 21 days of study drug per dose level per patient, unless the adverse event (AE) can be clearly related to the patient's underlying disease, other medical condition, or concomitant medications including any AEs attributed by the Investigator to the combination agent alone. A TEAE is defined as an AE that starts or worsens on or after the date of the first dose of study drug (for example on Study Day 1) through 28 days (+14 days window) after the date of the last dose of study drug or the first date starting new anticancer therapy, whichever is earlier. A Serious TEAE is defined as an TEAE that is grade 3 or higher based on severity grade assignment as defined by the National Cancer Institute's Common Terminology Criteria for Adverse Events, version 5.0 (NCI CTCAE v5.0). A Fatal TEAE is defined as an TEAE that is grade 5 based on severity grade assignment as defined by the National Cancer Institute's Common Terminology Criteria for Adverse Events, version 5.0 (NCI CTCAE v5.0).
(§1) NCT04956640 includes Phase 1a dose escalation (Part A of NCT04956640, see Table 3) followed by a Phase 1b dose expansion (Parts B to E of NCT04956640, see Table 4). […] Phase 1b dose expansion will include 12 cohorts (See Table 4) to further evaluate safety and clinical activity.

[2] = NCT04956640 Phase 1a monotherapy safety: treatment-emergent adverse events; conditions: in vivo
Text: (§2) A “DLT” is defined as any of the treatment-emergent adverse event (TEAEs), as defined by the National Cancer Institute's Common Terminology Criteria for Adverse Events, version 5.0 (NCI CTCAE v5.0), deemed clinically significant and occurring during the first 21 days of study drug per dose level per patient, unless the adverse event (AE) can be clearly related to the patient's underlying disease, other medical condition, or concomitant medications including any AEs attributed by the Investigator to the combination agent alone. A TEAE is defined as an AE that starts or worsens on or after the date of the first dose of study drug (for example on Study Day 1) through 28 days (+14 days window) after the date of the last dose of study drug or the first date starting new anticancer therapy, whichever is earlier. A Serious TEAE is defined as an TEAE that is grade 3 or higher based on severity grade assignment as defined by the National Cancer Institute's Common Terminology Criteria for Adverse Events, version 5.0 (NCI CTCAE v5.0). A Fatal TEAE is defined as an TEAE that is grade 5 based on severity grade assignment as defined by the National Cancer Institute's Common Terminology Criteria for Adverse Events, version 5.0 (NCI CTCAE v5.0). […]

UM-UC-3 = UM-UC-3 (bladder) xenograft model; format: in vivo, mouse
Procedure: (§3) For xenograft models of H1373, HCC44, MiaPaca-2, SW1463, SW837, KYSE-410 and UM-UC-3, typically 5-10×10^6 cells in a 1:1 matrigel mix (0.2 mL total volume) are implanted by subcutaneous injection in hind leg of nude mice. […] Treatment is initiated with oral administration (gavage) of testing compound or vehicle (20% captisol, 25 mM phosphate, pH2.0) in 0.2 mL volume when tumor size reaches approximately 200-300 mg. Tumor growth and body weight are monitored over time to evaluate efficacy and signs of toxicity. For EL3187 PDX model, frozen vials containing tumor fragments are thawed at 37° C. in a water bath. The tumor fragments are transferred to 50 mL Falcon tube and the ice cold DMEM medium is slowly added into the tube to a total volume of 35 mL. Then the tumor fragments are centrifuged at 130×g for 2 minutes at 4° C. and supernatant is aspirated. This washing step is repeated twice and the tumor fragments are resuspended in 10 mL DMEM for implantation into athymic nude-Foxn1nu mice (Envigo RMS, Inc., Mount Comfort, Indiana). Once tumor volumes reach 800 to 1000 mm^3, animals are sacrificed and tumors are harvested using aseptic technique. Fresh tumors are cut into 10 to 15 mm^3 fragments and placed into cold Gibco hibernate medium. The tumor fragments are subcutaneously implanted into animals with a 10 g trochar needle. When tumor size reaches 200 to 300 mm^3, the animals are randomized for compound treatment.
(§4) Among models listed in Table 2, EL3187 is a patient-derived xenograft (PDX) model, and all other are tumor xenograft models.

[3] = NCT04956640 Phase 1a clinical pharmacokinetics, monotherapy
Text: as §1

EL3187 = EL3187 (lung) patient-derived xenograft (PDX) model; format: in vivo, mouse
Procedure: as §3, §4

[4] = tested on: KRAS G12C-mutant advanced solid tumors; experiment: NCT04956640 Phase 1a, Phase 1b Cohort B4 and Cohort C2 pooled statements
Text: as §1

H1373 = H1373 (lung) xenograft model; format: in vivo, mouse
Procedure: as §3, §4

[5] = NCT04956640 Phase 1b Cohort C2 (with cetuximab) safety: treatment-emergent adverse events
Text: as §2

MiaPaca-2 = MiaPaca-2 (pancreas) xenograft model; format: in vivo, mouse
Procedure: as §3, §4

SW837 = SW837 (CRC) xenograft model; format: in vivo, mouse
Procedure: as §3, §4

C=CC(=O)N1CCN2C(=O)c3cc(F)c(-c4ccc(F)c5sc(N)c(C#N)c45)c(Cl)c3OCC[C@H]2C1 (single isomer, unassigned) [Formula I]
discontinuation due to TRAE ([1]; 50 mg BID): one | rate of immune-related AEs, including hepatoxicity ([1]; 50 mg BID and 100 mg BID): low rate of immune-related AEs | dose reductions ([1]; 50 mg and 100 mg BID): no dose reductions | tolerability [2]: well tolerated | tumor growth inhibition (%) or regression (− %) (UM-UC-3; 5 mg/kg BID x28): 45.3% | tumor growth inhibition (%) or regression (− %) (UM-UC-3; 5 mg/kg QD x28): 34.3% | tumor growth inhibition (%) or regression (− %) (UM-UC-3; 10 mg/kg BID x28): 75% | tumor growth inhibition (%) or regression (− %) (UM-UC-3; 10 mg/kg QD x28): 33.6% | tumor growth inhibition (%) or regression (− %) (UM-UC-3; 30 mg/kg BID x28): 85% | tumor growth inhibition (%) or regression (− %) (UM-UC-3; 30 mg/kg QD x28): 83.1% | AUC ([3]; 50 mg BID): 634 (53%) ng.h/mL | Cmax ([3]; 50 mg BID): 144 (45%) ng/ml | Ctrough-Cmin ([3]; 50 mg BID): 23.8 (90%)^c ng/mL | t½ ([3]; 50 mg BID): 3.03 (41%)^c h | AUC ([3]; 100 mg BID): 1475 (77%) ng.h/mL | Cmax ([3]; 100 mg BID): 305 (75%) ng/ml | Ctrough-Cmin ([3]; 100 mg BID): 44.9 (73%) ng/mL | Ctrough-Cmin compared with TEC90 ([3]; 100 mg BID): > 25 ng/mL | t½ ([3]; 100 mg BID): 3.01 (33%)^b h | AUC ([3]; 150 mg BID): 1795 (47%) ng.h/mL | Cmax ([3]; 150 mg BID): 368 (51%) ng/ml | Ctrough-Cmin ([3]; 150 mg BID): 54.5 (60%) ng/mL | Ctrough-Cmin compared with TEC90 ([3]; 150 mg BID): > 25 ng/mL | t½ ([3]; 150 mg BID): 3.41 (32%) h | AUC ([3]; 200 mg BID): 1372 (59%) ng.h/mL | Cmax ([3]; 200 mg BID): 325 (61%) ng/ml | Ctrough-Cmin ([3]; 200 mg BID): 40.3 (73%) ng/mL | Ctrough-Cmin compared with TEC90 ([3]; 200 mg BID): > 25 ng/mL | t½ ([3]; 200 mg BID): 2.35 (58%) h | tumor growth inhibition (%) or regression (− %) (EL3187; 1 mg/kg BID x28): 89.2% | tumor growth inhibition (%) or regression (− %) (EL3187; 1 mg/kg QD x28): 52% | tumor growth inhibition (%) or regression (− %) (EL3187; 3 mg/kg BID x28): −91% | tumor growth inhibition (%) or regression (− %) (EL3187; 3 mg/kg QD x28): −39.8% | tumor growth inhibition (%) or regression (− %) (EL3187; 10 mg/kg BID x28): −96% | tumor growth inhibition (%) or regression (− %) (EL3187; 10 mg/kg QD x28): −96% | DLTs ([4]; as of January 2023): No DLTs were observed | MTD ([4]; as of January 2023): MTD was not reached | patients with a grade 3 or greater TEAE ([4]; as of January 2023): four | patients with dose reduction due to TRAE ([4]; as of January 2023): one | patients with permanent discontinuation due to TRAE ([4]; as of January 2023): one | TRAE grade in seven patients who discontinued a prior KRAS G12C inhibitor due to toxicity ([4]; in vivo): ≤ 2 grade | median time to response ([4]; in vivo): 1.4 month | tumor growth inhibition (%) or regression (− %) (H1373; 5 mg/kg BID x28): −26.3% | tumor growth inhibition (%) or regression (− %) (H1373; 5 mg/kg QD x28): 97.9% | tumor growth inhibition (%) or regression (− %) (H1373; 10 mg/kg BID x28): −49% | tumor growth inhibition (%) or regression (− %) (H1373; 10 mg/kg QD x28): −21.3% | tumor growth inhibition (%) or regression (− %) (H1373; 30 mg/kg QD x28): −49.7% | DLT ([5]; 100 mg BID): One DLT, a grade 3 ALT/AST ratio increase | permanent discontinuation due to TRAEs ([5]; in vivo): No Phase 1b Cohort C2 patient permanently discontinued | tumor growth inhibition (%) or regression (− %) (MiaPaca-2; 5 mg/kg BID x28): −36.1% | tumor growth inhibition (%) or regression (− %) (MiaPaca-2; 5 mg/kg QD x28): 81.7% | tumor growth inhibition (%) or regression (− %) (MiaPaca-2; 10 mg/kg BID x28): −45.2% | tumor growth inhibition (%) or regression (− %) (MiaPaca-2; 10 mg/kg QD x28): −27% | tumor growth inhibition (%) or regression (− %) (MiaPaca-2; 30 mg/kg BID x28): −43.6% | tumor growth inhibition (%) or regression (− %) (MiaPaca-2; 30 mg/kg QD x28): −42% | tumor growth inhibition (%) or regression (− %) (SW837; 5 mg/kg BID x28): 83.6% | tumor growth inhibition (%) or regression (− %) (SW837; 5 mg/kg QD x28): 18.2% | tumor growth inhibition (%) or regression (− %) (SW837; 10 mg/kg BID x28): 62.1% | tumor growth inhibition (%) or regression (− %) (SW837; 10 mg/kg QD x28): 95.2% | tumor growth inhibition (%) or regression (− %) (SW837; 30 mg/kg BID x28): −23.8% | tumor growth inhibition (%) or regression (− %) (SW837; 30 mg/kg QD x28): 83.5%
